# Data taken from patent publication US20250339409A1, “USES OF PAN BET INHIBITORS” (VYNE THERAPEUTICS INC., priority 2021, published 2025).
# Where two headings read alike, the source gives them in different places.
# Key:
# [1] = system: back skin of healthy mice; experiment: Tolerance assessment of BETi1 0.01% and 1.0% in healthy (non-induced) mice; format: in vivo; details: for Modified PASI Mean score values / PASI Mean score values: female, Balb/c
# Method: Thirty-six (36) female Balb/c mice are weighed and randomly divided into 9 groups (n=4) according to body weight on D1. For mice of native group 1 and tolerance groups 8 and 9, no induction of psoriasis is performed between D1 and D13. Psoriasis is induced in groups 2 to 7 by once daily topical application for 13 days (from day 1 to day 13) of 65 mg of Aldara™ cream (5.0% imiquimod) onto the shaved and epilated back of mice. Before the first treatment, a second randomization of mice of the 6 imiquimod-induced psoriasis groups is performed according to the severity of psoriasis (PASI), and also the body weight of mice. Starting on day 7 and until day 13, 100 mg of test formulations […] and 65 mg of vehicle (groups 1 and […]) are topically administered once daily for 7 consecutive days onto the shaved back skin of mice. Several measurements are taken during treatment period from day 7 to day 14: psoriasis index (PASI), body weight, use of enrichment and mortality. At the end of treatment period, TEWL is assessed, and blood and skin samples are collected. Histological analysis of skin samples is used for microscopic scoring of psoriasis and the determination of the thickness of parakeratosis and epidermis and blood analysis is used for assessing the level of proinflammatory biomarkers (cytokines assays). The effect of treatment of psoriasis induced mice with BETi formulations at the four dose levels are compared with Dermoval® cream containing 0.05% clobetasol propionate (reference) and vehicle (positive control) and also with healthy mice treated with vehicle (negative control).
# The tolerance assessment to treatments with 0.01% and 1.0% BETi is performed daily during the treatment period (D7 to D13) as well as on the day mice are sacrifice (D14), and takes into account the following 5 parameters:
# The presence of erythema on the skin with the following scoring grid: • 0=no or no more erythema on the skin, • 1=weak erythema on the skin, • 2=moderate erythema on the skin, • 3=important erythema on the skin, • 4=severe erythema on the skin.
# The presence of induration of the skin with the following scoring grid: • 0=no or no more induration of the skin, • 1=weak induration of the skin, • 2=moderate induration of the skin, • 3=important induration of the skin, • 4=severe induration of the skin.
# The presence of ulceration of the skin with the following scoring grid: • 0=no or no more ulceration of the skin, • 1=weak ulceration of the skin, • 2=moderate ulceration of the skin, • 3=important ulceration of the skin, • 4=severe ulceration of the skin.
# The presence of necrosis of the skin with the following scoring grid: • 0=no or no more necrosis of the skin, • 1=weak necrosis of the skin, • 2=moderate necrosis of the skin, • 3=important necrosis of the skin, • 4=severe necrosis of the skin.
# The presence of peeling of the skin with the following scoring grid: • 0=no or no more peeling of the skin, • 1=weak peeling of the skin, • 2=moderate peeling of the skin, • 3=important peeling of the skin, • 4=severe peeling of the skin.
# The investigation addressed, amongst other things, the effect of the different BETi1 concentrations (0.001%, 0.01%, 0.1% and 1.0%) on various parameters. Tolerance was tested at two BETi1 concentrations (0.01% and 1%) in healthy mice.
# [2] = Toxicokinetics in dogs after intra-articular injection: plasma concentrations; format: in vivo, Beagle dogs; details: dog; for AUC(0-t) / Cmax / Tmax / concentration at 1 h / concentration at 2 h / concentration at 4 h / concentration at 8 h / concentration at 24 h / concentration at 336 h / concentration at 504 h / concentration at 672 h / concentration at 4 weeks: Beagle, plasma; for AUC(0-t): read-out: Plasma AUC0-672 h; for concentration at 1 h / concentration at 2 h / concentration at 4 h / concentration at 8 h / concentration at 24 h / concentration at 336 h / concentration at 504 h / concentration at 672 h / concentration at 4 weeks: other: intra-articular injection; for concentration at 1 h / concentration at 2 h / concentration at 4 h / concentration at 8 h / concentration at 24 h / concentration at 336 h / concentration at 504 h / concentration at 672 h: read-out: Plasma concentration of BETi1; for concentration at 4 weeks: read-out: plasma level at four weeks post-treatment
# [3] = both sexes, 7.5 mg/animal, 7.5 mg intra-articular
# [4] = both sexes, 75 mg/animal, 75 mg intra-articular
# [5] = both sexes, 150 mg/animal, 150 mg intra-articular
smiles,measurement,setting,value
Cn1cc(-c2cccc(O)c2Oc2ccccc2)c2cc[nH]c2c1=O [BETi1],"Body weight, individual mouse","[1]; Tolerance, healthy mice, D 1, listed as BETi1 1.0%",18.49
same,Mean body weights,"[1]; Tolerance, healthy mice, D 11, listed as BETi1 1.0%",18.97
same,"Body weight, individual mouse","[1]; Tolerance, healthy mice, D 14, listed as BETi1 1.0%",19.58
same,Modified PASI Mean score values,"[1]; mouse, in vivo",0.00
same,Modified PASI Mean score values,"[1]; mouse, in vivo, 1 study day",0.00
same,PASI Mean score values,"[1]; mouse, in vivo, 2 study day",0.00
same,PASI Mean score values,"[1]; mouse, in vivo, 3 study day",0.00
same,PASI Mean score values,"[1]; mouse, in vivo, 4 study day",0.00
same,PASI Mean score values,"[1]; mouse, in vivo, 5 study day",0.00
same,PASI Mean score values,"[1]; mouse, in vivo, 6 study day",0.00
same,PASI Mean score values,"[1]; mouse, in vivo, 7 study day",0.00
same,PASI Mean score values,"[1]; mouse, in vivo, 8 study day",0.00
same,Modified PASI Mean score values,"[1]; mouse, in vivo, 9 study day",0.00
same,PASI Mean score values,"[1]; mouse, in vivo, 9 study day",0.00
same,Modified PASI Mean score values,"[1]; mouse, in vivo, 10 study day",0.00
same,PASI Mean score values,"[1]; mouse, in vivo, 10 study day",0.00
same,Modified PASI Mean score values,"[1]; mouse, in vivo, 11 study day",0.00
same,PASI Mean score values,"[1]; mouse, in vivo, 11 study day",0.00
same,Modified PASI Mean score values,"[1]; mouse, in vivo, 12 study day",0.00
same,PASI Mean score values,"[1]; mouse, in vivo, 12 study day",0.00
same,Modified PASI Mean score values,"[1]; mouse, in vivo, 13 study day",0.00
same,PASI Mean score values,"[1]; mouse, in vivo, 13 study day",0.00
same,Modified PASI Mean score values,"[1]; mouse, in vivo, 14 study day",0.00
same,PASI Mean score values,"[1]; mouse, in vivo, 14 study day",0.00
same,local skin reaction to treatment,"[1]; mouse, in vivo",did not experience any noticeable local skin reaction
same,AUC(0-t),"[2]; 7.5 mg/animal, Female, Study Day 1",472 ng·h/mL
same,Cmax,"[2]; 7.5 mg/animal, Female, Study Day 1, read-out: Plasma Cmax",37.6 ng/mL
same,Tmax,"[2]; 7.5 mg/animal, Female, Study Day 1, read-out: Plasma Tmax",1.5 h
same,AUC(0-t),"[2]; 7.5 mg/animal, Male, Study Day 1",390 ng·h/mL
same,Cmax,"[2]; 7.5 mg/animal, Male, Study Day 1, read-out: Plasma Cmax",32.1 ng/mL
same,Tmax,"[2]; 7.5 mg/animal, Male, Study Day 1, read-out: Plasma Tmax",4 h
same,AUC(0-t),"[2]; 75 mg/animal, Female, Study Day 1",3760 ng·h/mL
same,Cmax,"[2]; 75 mg/animal, Female, Study Day 1, read-out: Plasma Cmax",56.6 ng/mL
same,Tmax,"[2]; 75 mg/animal, Female, Study Day 1, read-out: Plasma Tmax",2 h
same,AUC(0-t),"[2]; 75 mg/animal, Male, Study Day 1",3070 ng·h/mL
same,Cmax,"[2]; 75 mg/animal, Male, Study Day 1, read-out: Plasma Cmax",50.2 ng/mL
same,Tmax,"[2]; 75 mg/animal, Male, Study Day 1, read-out: Plasma Tmax",2 h
same,AUC(0-t),"[2]; 150 mg/animal, Female, Study Day 1",5990 ng·h/mL
same,Cmax,"[2]; 150 mg/animal, Female, Study Day 1, read-out: Plasma Cmax",52.9 ng/mL
same,Tmax,"[2]; 150 mg/animal, Female, Study Day 1, read-out: Plasma Tmax",5 h
same,AUC(0-t),"[2]; 150 mg/animal, Male, Study Day 1",3810 ng·h/mL
same,Cmax,"[2]; 150 mg/animal, Male, Study Day 1, read-out: Plasma Cmax",48.8 ng/mL
same,Tmax,"[2]; 150 mg/animal, Male, Study Day 1, read-out: Plasma Tmax",2 h
same,concentration at 1 h,[2]; [3],29.6 ng/mL
same,concentration at 2 h,[2]; [3],32.6 ng/mL
same,concentration at 4 h,[2]; [3],26.1 ng/mL
same,concentration at 8 h,[2]; [3],15.9 ng/mL
same,concentration at 24 h,[2]; [3],2.02 ng/mL
same,concentration at 336 h,[2]; [3],0 ng/mL
same,concentration at 504 h,[2]; [3],0 ng/mL
same,concentration at 672 h,[2]; [3],0 ng/mL
same,concentration at 1 h,[2]; [4],49.1 ng/mL
same,concentration at 2 h,[2]; [4],53.4 ng/mL
same,concentration at 4 h,[2]; [4],39.4 ng/mL
same,concentration at 8 h,[2]; [4],38.1 ng/mL
same,concentration at 24 h,[2]; [4],13.5 ng/mL
same,concentration at 336 h,[2]; [4],1.95 ng/mL
same,concentration at 504 h,[2]; [4],0.835 ng/mL
same,concentration at 672 h,[2]; [4],0.505 ng/mL
same,concentration at 1 h,[2]; [5],42.2 ng/mL
same,concentration at 2 h,[2]; [5],48.8 ng/mL
same,concentration at 4 h,[2]; [5],35.8 ng/mL
same,concentration at 8 h,[2]; [5],48.2 ng/mL
same,concentration at 24 h,[2]; [5],20.9 ng/mL
same,concentration at 336 h,[2]; [5],4.72 ng/mL
same,concentration at 504 h,[2]; [5],2.19 ng/mL
same,concentration at 672 h,[2]; [5],1.72 ng/mL
same,concentration at 4 weeks,"[2]; both sexes, 75 mg/animal, intra-articular, 75 mg",2 nM
same,concentration at 4 weeks,"[2]; both sexes, 150 mg/animal, intra-articular, 150 mg",5 nM
same,Tmax,"[2]; both sexes, intra-articular, calculated, read-out: Tmax, plasma (converted)",~120 h
same,Cmax,"[2]; both sexes, intra-articular, read-out: Cmax, plasma",50 ng/mL
same,clearance indicated by plasma levels,[2]; intra-articular,rapid clearance with a reduction being seen after 4 hours
same,plasma AUC lower compared to synovial levels,[2]; intra-articular,~2000 ×
same,plasma Cmax lower compared to synovial levels,[2]; intra-articular,~1000 ×
